This assay concerns white fly Bemisia tabaci. Description: Bemisia test. It counts as in vivo. As to conditions: concentration of active compound 0.0008 %, infested cotton plants (Gossypium hirsutum) with eggs, larvae and pupae dipped into preparation. Here is the method:
Solvent: 7.5 parts by weight of dimethylformamide
Emulsifier: 2.5 parts by weight of alkylaryl polyglycol ether
To produce a suitable preparation of active compound, 1 part by weight of active compound is mixed with the stated amounts of solvent and emulsifier, and the concentrate is diluted with water to the desired concentrations.
Cotton plants (Gossypium hirsutum) infested by eggs, larvae and pupae of the white fly Bemisia tabaci are dipped into a preparation of active compound of the desired concentration.
After the desired period of time, the kill in % is determined. 100% means that all animals have been killed; 0% means that none of the animals have been killed.

Four compounds from patent US6436988B1, “Use of 3-(2,4,6-trimethylphenyl)-4-neopentylcarbonyloxy-5,5- tetramethylene-Δ3-dihydrofuran-2-one for controlling the white fly” (Bayer Aktiengesellschaft, priority 1999, dated 2002) can be followed below.

For `Cc1cc(C)c(C2=C(OC(=O)CC(C)(C)C)C3(CCCCC3)OC2=O)c(C)c1`, the “Kill in % after 14 days” value turned out to be 50%.
Turning to `Cc1cc(C)c(C2=C(OC(=O)C(C)(C)C)C3(CCCC3)OC2=O)c(C)c1`, the “Kill in % after 14 days” value is 0%.
With `Cc1cc(C)c(C2=C(OC(=O)CC(C)C)C3(CCCC3)OC2=O)c(C)c1`, the “Kill in % after 14 days” value stood at 0%.
To `Cc1cc(C)c(C2=C(OC(=O)CC(C)(C)C)C3(CCCC3)OC2=O)c(C)c1` [formula (I), 3-(2,4,6-Trimethylphenyl)-4-neopentylcarbonyloxy-5,5-tetramethylene-Δ^3-dihydrofuran-2-one] belongs 95%.
